From the NIST ThermoML archive (doi:10.1016/j.fluid.2004.07.015)

Conditions: 101.33 kPa, Liquid

CCCCn1cc[n+](C)c1.F[P-](F)(F)(F)(F)F [1-butyl-3-methylimidazolium hexafluorophosphate]
Conditions | mass density [kg/m3]
289.1 K | 1372.6
291.1 K | 1370.8
293.1 K | 1369.1
295.1 K | 1367.4
297.05 K | 1365.8
299.1 K | 1364.1
301.05 K | 1362.4
303.15 K | 1360.6
305.1 K | 1359
307.15 K | 1357.3
309.15 K | 1355.6
